# From ChEMBL document CHEMBL3880381, “Selective inhibitors of aggrecanase in osteoarthritis treatment” (2001)
# Legend:
# [1] = molecular target: T1, Interstitial collagenase (Homo sapiens, UniProt P03956); assay: Inhibition of trypsin-activated recombinant human collagenase 1 preincubated with protein followed by addition of DNP-Pro-Cha-Gly-Cys(Me)-His-Ala-Lys(NMA)-NH2 as substrate measured after 20 mins by fluorescence analysis
# T1 sequence (P03956 whole entry): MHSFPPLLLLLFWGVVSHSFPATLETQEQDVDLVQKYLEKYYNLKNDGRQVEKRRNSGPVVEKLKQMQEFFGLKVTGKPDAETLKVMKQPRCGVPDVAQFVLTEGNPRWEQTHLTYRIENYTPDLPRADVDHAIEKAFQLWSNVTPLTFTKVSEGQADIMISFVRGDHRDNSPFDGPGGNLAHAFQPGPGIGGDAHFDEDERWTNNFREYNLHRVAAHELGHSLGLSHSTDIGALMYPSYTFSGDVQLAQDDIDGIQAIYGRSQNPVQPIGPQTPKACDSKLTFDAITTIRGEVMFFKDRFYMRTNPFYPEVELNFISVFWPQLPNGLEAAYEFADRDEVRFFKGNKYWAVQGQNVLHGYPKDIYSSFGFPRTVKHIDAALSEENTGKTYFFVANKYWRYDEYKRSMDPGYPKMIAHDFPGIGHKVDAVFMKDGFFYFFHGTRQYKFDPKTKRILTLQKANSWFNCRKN
# [2] = molecular target: Collagenase 3 (Homo sapiens, UniProt P45452); assay: Inhibition of APMA-activated recombinant human collagenase 3 preincubated with protein followed by addition of DNP-Pro-Cha-Gly-Cys(Me)-His-Ala-Lys(NMA)-NH2 as substrate measured every 5 mins for 1 hr by fluorescence analysis
# [3] = molecular target: T2, Aggrecanase (Sus scrofa, UniProt F1S1A7+F1SHP0); assay: Inhibition of aggrecanase in primary porcine chondrocytes assessed as inhibition of 35S-proteoglycan release measured after 9 to 12 hrs by liquid scintillation counting method; assay type: cell-based
# T2 sequence (F1S1A7 whole entry): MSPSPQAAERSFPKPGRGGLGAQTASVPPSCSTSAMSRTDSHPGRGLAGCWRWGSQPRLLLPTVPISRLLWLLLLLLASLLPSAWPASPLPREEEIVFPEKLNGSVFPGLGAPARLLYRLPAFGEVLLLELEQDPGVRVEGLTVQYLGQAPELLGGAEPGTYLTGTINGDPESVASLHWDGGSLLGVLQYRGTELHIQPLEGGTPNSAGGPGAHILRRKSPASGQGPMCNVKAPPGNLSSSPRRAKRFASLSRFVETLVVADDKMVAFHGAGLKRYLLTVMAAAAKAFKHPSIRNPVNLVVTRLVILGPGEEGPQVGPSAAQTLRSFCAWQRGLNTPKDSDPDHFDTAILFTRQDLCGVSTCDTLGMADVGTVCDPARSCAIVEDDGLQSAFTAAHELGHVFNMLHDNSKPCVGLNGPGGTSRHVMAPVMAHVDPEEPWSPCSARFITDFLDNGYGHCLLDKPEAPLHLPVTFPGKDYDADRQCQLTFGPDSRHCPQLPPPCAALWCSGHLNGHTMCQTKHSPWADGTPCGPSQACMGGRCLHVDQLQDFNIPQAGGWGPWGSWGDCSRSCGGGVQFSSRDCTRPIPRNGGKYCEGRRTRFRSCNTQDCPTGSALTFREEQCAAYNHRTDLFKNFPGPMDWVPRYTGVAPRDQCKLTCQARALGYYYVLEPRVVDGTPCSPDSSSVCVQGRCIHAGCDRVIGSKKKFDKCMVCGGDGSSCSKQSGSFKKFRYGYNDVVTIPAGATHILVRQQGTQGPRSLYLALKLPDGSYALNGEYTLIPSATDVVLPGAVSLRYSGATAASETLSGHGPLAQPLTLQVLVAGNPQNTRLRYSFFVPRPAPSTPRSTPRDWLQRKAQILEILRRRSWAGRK
# T2 sequence (F1SHP0 whole entry): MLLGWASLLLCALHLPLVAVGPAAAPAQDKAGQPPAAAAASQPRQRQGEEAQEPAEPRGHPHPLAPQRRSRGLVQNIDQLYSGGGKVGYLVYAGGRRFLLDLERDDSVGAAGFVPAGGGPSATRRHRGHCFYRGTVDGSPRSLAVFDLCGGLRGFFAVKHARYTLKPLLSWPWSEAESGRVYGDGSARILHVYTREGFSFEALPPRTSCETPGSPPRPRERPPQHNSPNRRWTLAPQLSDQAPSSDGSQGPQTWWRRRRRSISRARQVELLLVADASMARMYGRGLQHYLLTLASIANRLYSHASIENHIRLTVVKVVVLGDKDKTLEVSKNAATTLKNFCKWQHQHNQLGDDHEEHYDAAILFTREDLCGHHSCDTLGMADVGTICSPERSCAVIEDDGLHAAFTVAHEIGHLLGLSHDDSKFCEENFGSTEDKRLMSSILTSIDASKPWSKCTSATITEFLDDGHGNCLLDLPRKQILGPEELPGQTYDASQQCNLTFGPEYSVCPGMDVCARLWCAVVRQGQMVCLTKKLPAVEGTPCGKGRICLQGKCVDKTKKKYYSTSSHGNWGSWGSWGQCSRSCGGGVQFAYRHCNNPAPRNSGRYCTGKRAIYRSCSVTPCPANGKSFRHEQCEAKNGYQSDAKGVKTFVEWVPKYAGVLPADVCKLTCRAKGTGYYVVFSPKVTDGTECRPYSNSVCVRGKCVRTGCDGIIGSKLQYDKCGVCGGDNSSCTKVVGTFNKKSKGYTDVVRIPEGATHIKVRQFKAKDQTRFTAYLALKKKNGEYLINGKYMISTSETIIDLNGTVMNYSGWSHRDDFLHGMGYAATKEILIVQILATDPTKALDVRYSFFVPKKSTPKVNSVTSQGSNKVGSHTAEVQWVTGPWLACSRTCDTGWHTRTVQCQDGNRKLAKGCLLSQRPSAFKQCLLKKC
# [4] = molecular target: Disintegrin and metalloproteinase domain-containing protein 17 (Homo sapiens, UniProt P78536); assay: Inhibition of TACE in human mononuclear cells assessed as inhibition of LPS-induced TNF-alpha production measured after 4 hrs in presence of LPS by ELISA; assay type: cell-based
# Disintegrin and metalloproteinase domain-containing protein 17, sequence (P78536 whole entry, the tested form may be a part): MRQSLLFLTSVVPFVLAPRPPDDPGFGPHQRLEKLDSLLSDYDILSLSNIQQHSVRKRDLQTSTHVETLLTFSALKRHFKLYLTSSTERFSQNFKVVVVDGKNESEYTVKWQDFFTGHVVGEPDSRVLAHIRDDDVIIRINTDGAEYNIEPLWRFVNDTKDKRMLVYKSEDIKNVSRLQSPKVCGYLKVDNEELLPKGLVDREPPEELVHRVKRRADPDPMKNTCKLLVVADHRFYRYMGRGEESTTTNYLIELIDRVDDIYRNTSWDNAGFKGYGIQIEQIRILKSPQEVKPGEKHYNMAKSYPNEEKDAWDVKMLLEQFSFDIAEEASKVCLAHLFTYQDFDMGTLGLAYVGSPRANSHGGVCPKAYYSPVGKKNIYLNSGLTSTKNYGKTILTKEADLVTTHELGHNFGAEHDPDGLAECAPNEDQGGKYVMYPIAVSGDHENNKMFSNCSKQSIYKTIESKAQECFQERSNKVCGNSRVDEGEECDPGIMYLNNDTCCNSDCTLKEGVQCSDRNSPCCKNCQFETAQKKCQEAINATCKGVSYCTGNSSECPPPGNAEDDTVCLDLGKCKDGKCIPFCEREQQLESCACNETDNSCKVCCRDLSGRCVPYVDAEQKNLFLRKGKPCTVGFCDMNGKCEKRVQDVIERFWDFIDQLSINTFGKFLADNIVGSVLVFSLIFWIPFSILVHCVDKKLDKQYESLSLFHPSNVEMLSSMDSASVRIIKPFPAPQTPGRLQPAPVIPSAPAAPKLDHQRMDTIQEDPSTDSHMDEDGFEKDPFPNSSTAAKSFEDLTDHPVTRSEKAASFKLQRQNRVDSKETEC
SMILES,IC50 [1],IC50 [2],IC50 [3],IC50 [4]
CC1(C)C[C@@H](O)CN(S(=O)(=O)c2ccc(OCc3ccc(Cl)cc3Cl)cc2)[C@H]1C(=O)NO,200 to 1000 nM,< 10 nM,< 10 nM,20000 to 40000 nM
C[C@@]1(O)CCCN(S(=O)(=O)c2ccc(OCc3ccc(F)cc3Cl)cc2)[C@H]1C(=O)NO,200 to 1000 nM,< 10 nM,< 10 nM,10000 to 20000 nM
Cc1cc(F)ccc1COc1ccc(S(=O)(=O)N2C[C@H](O)CC(C)(C)[C@@H]2C(=O)NO)cc1,200 to 1000 nM,< 10 nM,< 10 nM,< 10000 nM
Cc1cc(F)ccc1COc1ccc(S(=O)(=O)N2CCC[C@@](C)(O)[C@@H]2C(=O)NO)cc1,–,< 10 nM,< 10 nM,< 10000 nM
Cc1cc(F)ccc1COc1ccc(S(=O)(=O)N2CC(=O)N[C@@H](C)[C@@H]2C(=O)NO)cc1,> 1000 nM,10 to 20 nM,< 10 nM,< 10000 nM
Cc1ccccc1COc1ccc(S(=O)(=O)N2CCC[C@](C)(O)[C@@H]2C(=O)NO)cc1,200 to 1000 nM,< 10 nM,10 to 20 nM,< 10000 nM
C[C@@]1(O)CCCN(S(=O)(=O)c2ccc(OCc3ccc(Cl)cc3Cl)cc2)[C@H]1C(=O)NO,200 to 1000 nM,< 10 nM,< 10 nM,10000 to 20000 nM
CC1(C)C[C@@H](O)CN(S(=O)(=O)c2ccc(OCc3cc(Cl)ccc3F)cc2)[C@H]1C(=O)NO,200 to 1000 nM,< 10 nM,10 to 20 nM,10000 to 20000 nM
C[C@@]1(O)CCCN(S(=O)(=O)c2ccc(OCc3ccc(F)cc3F)cc2)[C@H]1C(=O)NO,200 to 1000 nM,< 10 nM,10 to 20 nM,10000 to 20000 nM
CC1(C)C[C@@H](O)CN(S(=O)(=O)c2ccc(OCc3ccc(F)cc3)cc2)[C@H]1C(=O)NO,20 to 200 nM,< 10 nM,< 10 nM,10000 to 20000 nM
Cc1ccc(Cl)cc1COc1ccc(S(=O)(=O)N2C[C@H](O)CC(C)(C)[C@@H]2C(=O)NO)cc1,> 1000 nM,20 to 200 nM,10 to 20 nM,10000 to 20000 nM

# More lines, now with the values ahead:
IC50 [1],IC50 [2],IC50 [3],IC50 [4],SMILES
20 to 200 nM,–,10 to 20 nM,20000 to 40000 nM,C[C@@]1(O)CCCN(S(=O)(=O)c2ccc(OCc3ccccc3F)cc2)[C@H]1C(=O)NO
–,< 10 nM,< 10 nM,< 10000 nM,C[C@@]1(O)CCCN(S(=O)(=O)c2ccc(OCc3ccccc3Cl)cc2)[C@H]1C(=O)NO
–,< 10 nM,10 to 20 nM,< 10000 nM,Cc1ccc(F)cc1COc1ccc(S(=O)(=O)N2CCC[C@@](C)(O)[C@@H]2C(=O)NO)cc1
200 to 1000 nM,< 10 nM,< 10 nM,< 10000 nM,Cc1ccccc1COc1ccc(S(=O)(=O)N2CCC[C@@](C)(O)[C@@H]2C(=O)NO)cc1
200 to 1000 nM,< 10 nM,< 10 nM,< 10000 nM,Cc1c(F)cccc1COc1ccc(S(=O)(=O)N2C[C@H](O)CC(C)(C)[C@@H]2C(=O)NO)cc1
> 1000 nM,< 10 nM,10 to 20 nM,< 10000 nM,Cc1c(F)cccc1COc1ccc(S(=O)(=O)N2CCC[C@@](C)(O)[C@@H]2C(=O)NO)cc1
200 to 1000 nM,< 10 nM,10 to 20 nM,< 10000 nM,CC1(C)C[C@@H](O)CN(S(=O)(=O)c2ccc(OCc3ccccc3Br)cc2)[C@H]1C(=O)NO
200 to 1000 nM,< 10 nM,< 10 nM,10000 to 20000 nM,CC1(C)C[C@@H](O)CN(S(=O)(=O)c2ccc(OCc3ccc(F)cc3Cl)cc2)[C@H]1C(=O)NO
–,–,–,3000 nM,NS(=O)(=O)c1ccc(CCNC(=O)[C@H](CC2CCCCC2)NC(=O)[C@H](CCCc2ccccc2)CC(=O)NO)cc1
> 1000 nM,20 to 200 nM,< 10 nM,< 10000 nM,CCc1ccccc1COc1ccc(S(=O)(=O)N2CCN(C(=O)NC)[C@@H](C)[C@@H]2C(=O)NO)cc1
200 to 1000 nM,< 10 nM,10 to 20 nM,10000 to 20000 nM,CNC(=O)N1CCN(S(=O)(=O)c2ccc(OCc3ccc(F)cc3F)cc2)[C@@H](C(=O)NO)[C@@H]1C
> 1000 nM,20 to 200 nM,< 10 nM,< 10000 nM,Cc1ccccc1COc1ccc(S(=O)(=O)N2CCN(C(=O)CN)[C@@H](C)[C@@H]2C(=O)NO)cc1
> 1000 nM,10 to 20 nM,< 10 nM,< 10000 nM,Cc1ccc(F)cc1COc1ccc(S(=O)(=O)N2CC(=O)N[C@@H](C)[C@@H]2C(=O)NO)cc1
> 1000 nM,< 10 nM,< 10 nM,< 10000 nM,CNC(=O)N1CCN(S(=O)(=O)c2ccc(OCc3cc(F)ccc3C)cc2)[C@@H](C(=O)NO)[C@@H]1C
–,1 nM,–,–,CNC(=O)[C@H](Cc1ccc(OC)cc1)NC(=O)[C@@H](CC(=O)NO)CC(C)C
